Earlier results, collected in PMC2728785 (Biomaterials, 2009).

Tests used:
[1] = versus unmodified bovine hemoglobin

CC(C)(S)CN [1-amino-2-methyl-2-propanethiol]
degradation rate relative to the less hindered cysteamine linker (disulfide bond prepared from the sterically hindered linker): about 100 times slower

NCCS [cysteamine linker, cysteamine]
t1/2 of GSH-dependent disulfide degradation (disulfide bond prepared from the linker): 3 min

12 copies of a 5 kDa PEG conjugated to bovine hemoglobin: PEGylated bovine hemoglobin from the literature
increase of blood half-life [1]: 14 factor
increase of systemic availability [1]: 8 factor
